Assay results reported in ChEMBL document CHEMBL1201862, “PubChem BioAssay data set” (2004).
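Tested at 5 concentrations; 48 h exposure; 96-well plates; endpoints linearly interpolated, else capped at highest concentration. Here, GI50 denotes the concentration required for 50% inhibition of growth.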 Calls of active or inactive are those of the source. Cut-off read from the data, not from the text of the source: active = GI50 up to about 1.1 µM and inactive = higher.

Key:
Assay in all cases: DTP human tumour cell line panel, 48 h
NCI-H460 = test system: NCI-H460
SK-MEL-28 = test system: SK-MEL-28
U-251 = test system: U-251
CCRF-CEM = test system: CCRF-CEM
HOP-62 = test system: HOP-62
HCT-116 = test system: HCT-116
A549 = test system: A549
UO-31 = test system: UO-31
K562 = test system: K562
RXF 393 = test system: RXF 393
NCI-H226 = test system: NCI-H226
UACC-62 = test system: UACC-62
RXF 631 = test system: RXF 631
NCI-H23 = test system: NCI-H23
OVCAR-5 = test system: OVCAR-5
HT-29 = test system: HT-29
SF-295 = test system: SF-295
HOP-92 = test system: HOP-92
SK-OV-3 = test system: SK-OV-3
M14 = test system: M14
DMS-114 = test system: DMS-114
NCI-H522 = test system: NCI-H522
KM12 = test system: KM12
MOLT-4 = test system: MOLT-4
ACHN = test system: ACHN
HL-60 = test system: HL-60
OVCAR-8 = test system: OVCAR-8
TK-10 = test system: TK-10
A498 = test system: A498
M19-MEL = test system: M19-MEL
SNB-78 = test system: SNB-78
EKVX = test system: EKVX
UACC-257 = test system: UACC-257
IGROV-1 = test system: IGROV-1
SNB-19 = test system: SNB-19
SR = test system: SR
DMS-273 = test system: DMS-273
SNB-75 = test system: SNB-75
HCT-15 = test system: HCT-15
COLO 205 = test system: COLO 205
Malme-3M = test system: Malme-3M
RPMI-8226 = test system: RPMI-8226
SW-620 = test system: SW-620
SN12C = test system: SN12C
CAKI-1 = test system: CAKI-1
LOX IMVI = test system: LOX IMVI
XF498 = test system: XF498
OVCAR-3 = test system: OVCAR-3
SF-539 = test system: SF-539
HOP-18 = test system: HOP-18
DLD-1 = test system: DLD-1
OVCAR-4 = test system: OVCAR-4
KM-20L2 = test system: KM-20L2
HCC 2998 = test system: HCC 2998
786-0 = test system: 786-0
SK-MEL-5 = test system: SK-MEL-5
LXFL 529 = test system: LXFL 529
SF-268 = test system: SF-268
SK-MEL-2 = test system: SK-MEL-2

`C[C@H]1C(=O)c2c(cc(O)c(C3OC(CO)C(O)C(O)C3O)c2O)OC1c1ccc(O)c(O)c1` (some centres undefined) was tested, and the GI50 (NCI-H460) was > 100 µM (inactive), the GI50 (SK-MEL-28) was > 100 µM (inactive) and the GI50 (U-251) was > 100 µM (inactive). For the same molecule, the GI50 (CCRF-CEM) was > 100 µM (inactive), the GI50 (HOP-62) was > 100 µM (inactive) and the GI50 (HCT-116) was > 100 µM (inactive). For the same molecule, the GI50 (A549) was > 100 µM (inactive), the GI50 (UO-31) was > 100 µM (inactive) and the GI50 (K562) was > 10 µM (inactive). For the same molecule, the GI50 (RXF 393) was > 100 µM (inactive), the GI50 (NCI-H226) was 64.9 µM (inactive) and the GI50 (UACC-62) was > 100 µM (inactive). For the same molecule, the GI50 (RXF 631) was > 100 µM (inactive), the GI50 (NCI-H23) was > 100 µM (inactive) and the GI50 (OVCAR-5) was > 100 µM (inactive). For the same molecule, the GI50 (HT-29) was > 100 µM (inactive), the GI50 (SF-295) was > 100 µM (inactive) and the GI50 (HOP-92) was > 100 µM (inactive). For the same molecule, the GI50 (SK-OV-3) was > 100 µM (inactive), the GI50 (M14) was > 100 µM (inactive) and the GI50 (DMS-114) was > 100 µM (inactive). For the same molecule, the GI50 (NCI-H522) was > 100 µM (inactive), the GI50 (KM12) was > 100 µM (inactive) and the GI50 (MOLT-4) was > 100 µM (inactive). For the same molecule, the GI50 (ACHN) was > 100 µM (inactive), the GI50 (HL-60) was > 100 µM (inactive) and the GI50 (OVCAR-8) was > 100 µM (inactive). For the same molecule, the GI50 (TK-10) was > 100 µM (inactive), the GI50 (A498) was > 100 µM (inactive) and the GI50 (M19-MEL) was > 100 µM (inactive). For the same molecule, the GI50 (SNB-78) was > 100 µM (inactive), the GI50 (EKVX) was > 100 µM (inactive) and the GI50 (UACC-257) was > 100 µM (inactive). For the same molecule, the GI50 (IGROV-1) was > 100 µM (inactive), the GI50 (SNB-19) was > 100 µM (inactive) and the GI50 (SR) was > 100 µM (inactive).
`COc1cc(Cl)cc(N(O)C(C)=O)c1OCc1ccccc1` was tested, and the GI50 (DMS-273) was 49.9 µM (inactive), the GI50 (SNB-75) was 24.8 µM (inactive) and the GI50 (HCT-15) was 51.4 µM. For the same molecule, the GI50 (NCI-H460) was 48.1 µM (inactive), the GI50 (SK-MEL-28) was > 100 µM (inactive) and the GI50 (U-251) was 80.4 µM (inactive). The GI50 (CCRF-CEM) was 38.1 µM (inactive), the GI50 (HOP-62) was 65.6 µM (inactive) and the GI50 (COLO 205) was > 100 µM (inactive). For the same molecule, the GI50 (Malme-3M) was > 100 µM (inactive), the GI50 (RPMI-8226) was 96.6 µM (inactive) and the GI50 (SW-620) was > 100 µM (inactive). The GI50 (HCT-116) was 75.2 µM (inactive), the GI50 (SN12C) was > 100 µM (inactive) and the GI50 (CAKI-1) was > 100 µM (inactive). The GI50 (A549) was 68.5 µM (inactive), the GI50 (UO-31) was 51.8 µM (inactive) and the GI50 (LOX IMVI) was 77.6 µM (inactive). For the same molecule, the GI50 (K562) was 75.9 µM (inactive), the GI50 (RXF 393) was > 100 µM (inactive) and the GI50 (NCI-H226) was 65.8 µM (inactive). For the same molecule, the GI50 (XF498) was 36.9 µM (inactive), the GI50 (OVCAR-3) was 74.6 µM (inactive) and the GI50 (UACC-62) was 49.7 µM (inactive). For the same molecule, the GI50 (SF-539) was 83.4 µM (inactive), the GI50 (NCI-H23) was > 100 µM (inactive) and the GI50 (OVCAR-5) was > 100 µM (inactive). For the same molecule, the GI50 (HOP-18) was > 100 µM (inactive), the GI50 (DLD-1) was > 100 µM (inactive) and the GI50 (OVCAR-4) was > 100 µM (inactive). The GI50 (KM-20L2) was 83.2 µM (inactive), the GI50 (HT-29) was 64.6 µM (inactive) and the GI50 (HCC 2998) was > 100 µM (inactive). For the same molecule, the GI50 (SF-295) was 66.2 µM (inactive), the GI50 (HOP-92) was > 100 µM (inactive) and the GI50 (786-0) was 61.8 µM (inactive). For the same molecule, the GI50 (SK-OV-3) was 74 µM (inactive), the GI50 (SK-MEL-5) was > 100 µM (inactive) and the GI50 (M14) was > 100 µM (inactive). The GI50 (DMS-114) was 25.6 µM (inactive), the GI50 (LXFL 529) was 75.9 µM (inactive) and the GI50 (NCI-H522) was 62.1 µM (inactive). The GI50 (KM12) was > 100 µM (inactive), the GI50 (MOLT-4) was 50.4 µM (inactive) and the GI50 (ACHN) was 63.4 µM (inactive). The GI50 (HL-60) was 40.7 µM (inactive), the GI50 (OVCAR-8) was 70.8 µM (inactive) and the GI50 (TK-10) was 79.4 µM (inactive). The GI50 (A498) was > 100 µM (inactive), the GI50 (M19-MEL) was 70.8 µM (inactive) and the GI50 (SNB-78) was > 100 µM (inactive). For the same molecule, the GI50 (EKVX) was 30.9 µM (inactive), the GI50 (UACC-257) was > 100 µM (inactive) and the GI50 (SF-268) was 44.8 µM (inactive). The GI50 (IGROV-1) was > 100 µM (inactive), the GI50 (SNB-19) was 80.9 µM (inactive) and the GI50 (SR) was 44.3 µM (inactive).
With `Cc1cccc(-c2nnc3s/c(=C\c4ccc5c(c4)OCO5)c(=O)n23)c1` the GI50 (DMS-273) was > 100 µM (inactive), the GI50 (SNB-75) was 26.9 µM (inactive) and the GI50 (HCT-15) was over 100 µM. The GI50 (NCI-H460) was > 100 µM (inactive), the GI50 (SK-MEL-28) was > 100 µM (inactive) and the GI50 (U-251) was > 100 µM (inactive). The GI50 (CCRF-CEM) was > 100 µM (inactive), the GI50 (HOP-62) was > 100 µM (inactive) and the GI50 (COLO 205) was > 100 µM (inactive). For the same molecule, the GI50 (Malme-3M) was > 100 µM (inactive), the GI50 (RPMI-8226) was > 100 µM (inactive) and the GI50 (SW-620) was > 100 µM (inactive). The GI50 (SK-MEL-2) was > 100 µM (inactive), the GI50 (HCT-116) was > 100 µM (inactive) and the GI50 (SN12C) was > 100 µM (inactive). The GI50 (CAKI-1) was > 100 µM (inactive), the GI50 (A549) was > 100 µM (inactive) and the GI50 (UO-31) was > 100 µM (inactive). The GI50 (LOX IMVI) was > 100 µM (inactive), the GI50 (K562) was > 100 µM (inactive) and the GI50 (RXF 393) was > 100 µM (inactive). For the same molecule, the GI50 (NCI-H226) was > 100 µM (inactive), the GI50 (XF498) was > 100 µM (inactive) and the GI50 (OVCAR-3) was > 100 µM (inactive). For the same molecule, the GI50 (UACC-62) was > 100 µM (inactive), the GI50 (SF-539) was > 100 µM (inactive) and the GI50 (NCI-H23) was > 100 µM (inactive). The GI50 (OVCAR-5) was > 100 µM (inactive), the GI50 (HOP-18) was > 100 µM (inactive) and the GI50 (DLD-1) was > 100 µM (inactive). For the same molecule, the GI50 (OVCAR-4) was > 100 µM (inactive), the GI50 (KM-20L2) was > 100 µM (inactive) and the GI50 (HCC 2998) was > 100 µM (inactive). The GI50 (SF-295) was > 100 µM (inactive), the GI50 (HOP-92) was > 100 µM (inactive) and the GI50 (786-0) was > 100 µM (inactive). For the same molecule, the GI50 (SK-OV-3) was > 100 µM (inactive), the GI50 (SK-MEL-5) was > 100 µM (inactive) and the GI50 (M14) was > 100 µM (inactive). The GI50 (DMS-114) was > 100 µM (inactive), the GI50 (LXFL 529) was > 100 µM (inactive) and the GI50 (NCI-H522) was > 100 µM (inactive). The GI50 (KM12) was > 100 µM (inactive), the GI50 (MOLT-4) was > 100 µM (inactive) and the GI50 (ACHN) was > 100 µM (inactive). The GI50 (HL-60) was > 100 µM (inactive), the GI50 (OVCAR-8) was > 100 µM (inactive) and the GI50 (TK-10) was > 100 µM (inactive). For the same molecule, the GI50 (A498) was > 100 µM (inactive), the GI50 (M19-MEL) was > 100 µM (inactive) and the GI50 (SNB-78) was > 100 µM (inactive). The GI50 (EKVX) was > 100 µM (inactive), the GI50 (UACC-257) was 29.8 µM (inactive) and the GI50 (SF-268) was > 100 µM (inactive). The GI50 (IGROV-1) was > 100 µM (inactive) and the GI50 (SNB-19) was > 100 µM (inactive).
